Reference: paper PMC3481155, “AhR activation underlies the CYP1A autoinduction by A-998679 in rats” (Frontiers in Genetics, 2012)

How the values were obtained:
Cyp1a2 [1] = test: Cyp1a2 mRNA in rat small intestine (jejunum); assay type: in vivo; settings: data not shown
Method: (§1) All animal experiments were conducted in accordance with the Guiding Principles in the Use of Animals in Toxicology (http://www.toxicology.org/ai/air/air6.asp) and were approved by Abbott's Institutional Animal Care and Use Committee (IACUC). Male Sprague-Dawley rats [Crl:CD®(SD)IGS BR], weighing ~250 g at study initiation were obtained from Charles River Laboratories, Inc. (Wilmington, MA). Rats were housed singly in ventilated, stainless steel, wire-bottom hanging cages and fed non-certified Rodent Chow (Harlan Labs, Madison, WI), and water ad libitum and acclimated for at least 5 days after arrival. […] Serum clinical chemistry parameters were quantified using an Aeroset Clinical Chemistry Analyzer (Abbott Laboratories, Abbott Park, IL) and included alanine amino transferase (ALT), aspartate amino transferase (AST), gamma glutamyltransferase (GGT), and alkaline phosphatase (ALP) activities.
(§2) Frozen liver or jejunum were immediately added to 4 ml of TRIzol reagent (Invitrogen Life Technologies) and homogenized using a Polytron 300D homogenizer (Brinkman Instruments, Westbury, NY). […] Nucleic acid concentration was determined by OD 260 nm (Smart-Spec, Bio-Rad Laboratories, Hercules, CA), and RNA integrity was evaluated using an Agilent 2100 bioanalyzer (Agilent Technologies, Foster City, CA). […]

CYP1A2 [2] = test: CYP1A2 mRNA induction in primary human hepatocytes; assay type: cell-based; settings: 24 h, dose-dependent
Method: Rat hepatocytes were isolated in a perfusion procedure as described previously (Elliget and Kolaja, [1983]; Waring et al., [2001]). The beagle dog hepatocytes were isolated in the same manner, except for adjustment of flow rate and buffer volume to scale to liver size. Cells were plated at a seeding density of 1.0 × 10^6 cells per well on 6-well, collagen-type I coated plates (BD Biosciences, Bedford, MA) in hepatocyte plating medium (Celsis, Baltimore, MD). Cells were allowed to attach for 24 h in a 37°C humidified incubator with a 5% CO2 atmosphere and were dosed for 24 h (rat) or 48 h (dog) with vehicle control [0.1% DMSO (v/v)] or 10 μM A-998679 in fresh treatment media (Celsis hepatocyte incubation media) every 24 h. After the last incubation, cells were lysed in 1 ml of Qiazol (Qiagen) and stored at −80°C until RNA isolation. Cryopreserved human hepatocytes (donor designation Hu4198; Invitrogen Life Technologies, Carlsbad, CA) were thawed and plated according to the manufacturer's protocol and allowed to incubate for 24 h. […]
RNA samples were diluted with RNase-free molecular biology grade water to a concentration of 20 ng/μl total RNA. […] Results were analyzed by calculating the fold change of CYP1A1 and/or CYP1A2 mRNA levels normalized to 28S rRNA (ΔΔ Ct) in compound treated cells or tissues compared to vehicle levels. […]

[3] = system: multidrug resistance-associated protein (Mrp3); test: Mrp3 expression in rat liver; assay type: in vivo; settings: treated rats; data not shown
Method: as §1, §2

Question: What does the source list for N#Cc1cccc(-c2noc(-c3cccnc3)n2)c1 [A-998679, 3-(5-pyridin-3-yl-1,2,4-oxadiazol-3-yl) benzonitrile]?
Answer: Cyp1a2 mRNA levels in rat jejunum (Cyp1a2 [1]): unchanged; lowest concentration inducing CYP1A2 mRNA (CYP1A2 [2]): 3 µM; expression of Mrp3 in liver [3]: increased expression
